In ChEMBL document CHEMBL1145004, “3-(4-[[Benzyl(methyl)amino]methyl]phenyl)-6,7-dimethoxy-2H-2-chromenone (AP2238) inhibits both acetylcholinesterase and acetylcholinesterase-induced beta-amyloid aggregation: a dual function lead for Alzheimer's disease therapy” (J Med Chem, 2003):
pIC50, pKi: −log10 of the molar value.

Key:
Acetylcholinesterase = Acetylcholinesterase (Homo sapiens, UniProt P22303); assay: Inhibitory potency was evaluated against recombinant human AChE
Cholinesterase = Cholinesterase (Homo sapiens, UniProt P06276); assay: Inhibitory potency was evaluated against isolated Butyrylcholinesterase
Chain of Cholinesterase (P06276 whole entry): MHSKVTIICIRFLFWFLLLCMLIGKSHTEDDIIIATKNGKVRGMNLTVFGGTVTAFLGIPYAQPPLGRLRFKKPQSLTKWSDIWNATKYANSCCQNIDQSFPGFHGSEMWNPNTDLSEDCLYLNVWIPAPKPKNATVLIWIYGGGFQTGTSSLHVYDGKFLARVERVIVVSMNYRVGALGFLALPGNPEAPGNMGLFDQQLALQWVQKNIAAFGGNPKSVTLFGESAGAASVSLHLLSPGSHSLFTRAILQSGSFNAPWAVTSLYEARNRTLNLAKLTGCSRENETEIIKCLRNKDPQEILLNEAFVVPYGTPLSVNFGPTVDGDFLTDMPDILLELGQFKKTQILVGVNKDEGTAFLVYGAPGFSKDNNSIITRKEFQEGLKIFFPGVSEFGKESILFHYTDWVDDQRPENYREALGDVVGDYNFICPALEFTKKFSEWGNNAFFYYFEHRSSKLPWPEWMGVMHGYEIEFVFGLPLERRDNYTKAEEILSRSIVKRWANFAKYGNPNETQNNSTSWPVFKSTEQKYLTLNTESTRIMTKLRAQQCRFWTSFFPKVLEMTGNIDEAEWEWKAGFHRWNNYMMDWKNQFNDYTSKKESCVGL

Chain of Acetylcholinesterase (P22303 whole entry): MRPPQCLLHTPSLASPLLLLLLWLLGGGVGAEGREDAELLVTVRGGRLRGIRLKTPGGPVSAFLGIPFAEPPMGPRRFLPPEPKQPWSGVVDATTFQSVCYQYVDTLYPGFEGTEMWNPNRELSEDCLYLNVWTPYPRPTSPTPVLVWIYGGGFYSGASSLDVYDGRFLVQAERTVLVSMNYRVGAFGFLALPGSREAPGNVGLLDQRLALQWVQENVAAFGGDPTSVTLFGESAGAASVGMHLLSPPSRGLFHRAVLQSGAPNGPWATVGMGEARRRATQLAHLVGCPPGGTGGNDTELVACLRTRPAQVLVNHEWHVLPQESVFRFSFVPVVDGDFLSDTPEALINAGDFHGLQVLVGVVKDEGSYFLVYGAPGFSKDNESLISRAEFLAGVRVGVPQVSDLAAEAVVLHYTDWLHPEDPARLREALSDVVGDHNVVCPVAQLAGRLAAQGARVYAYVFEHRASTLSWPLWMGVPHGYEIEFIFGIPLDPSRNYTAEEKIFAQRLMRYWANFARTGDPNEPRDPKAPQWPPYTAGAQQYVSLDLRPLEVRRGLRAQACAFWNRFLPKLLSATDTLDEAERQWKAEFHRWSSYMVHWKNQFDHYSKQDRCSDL

Compound `COc1cc2cc(-c3ccc(CN(C)Cc4ccccc4)cc3)c(=O)oc2cc1OC` has a pIC50 (Acetylcholinesterase) of 7.35, a pKi (Acetylcholinesterase) of 7.66 and a pIC50 (Cholinesterase) of 4.31.
